Test results taken from ChEMBL document CHEMBL5108025, “New thiazole-based derivatives as EGFR/HER2 and DHFR inhibitors: Synthesis, molecular modeling simulations and anticancer activity” (Eur J Med Chem, 2022).
The source made the active and inactive calls. No cut-off for these calls is given here.

Columns and labels:
[1] = Antitumor activity in 7,12-dimethylbenz [a]anthracene-induced non-lactating mammary glands solid tumor model of female Swiss albino mouse assessed as mean tumor volume at 2 mg/kg, ip; assay type: functional
[2] = Toxicity in 7,12-dimethylbenz [a]anthracene-induced non-lactating mammary glands solid tumor model of female Swiss albino mouse assessed as reduction in body weight at 2 mg/kg, ip; assay type: organism-based; set-up: scale not given: the % may be the effect or the level left; conditions: in vivo
Breast carcinoma cell = experiment: Induction of apoptosis in human breast cancer cells assessed as normalization of caspase-3 expression measured as caspase-3 score; assay type: functional, Breast cancer cell line
[3] = Toxicity in 7,12-dimethylbenz [a]anthracene-induced non-lactating mammary glands solid tumor model of female Swiss albino mouse assessed as mean body weight at 2 mg/kg, ip; assay type: organism-based; conditions: in vivo
HeLa = experiment: Antiproliferative activity against human HeLa cells after 72 hrs by MTT assay; assay type: functional, cell-based
PC-3 = experiment: Antiproliferative activity against human PC-3 cells after 72 hrs by MTT assay; assay type: functional, cell-based; conditions: PC-3, 72 h
[4] = Antitumor activity in 7,12-dimethylbenz [a]anthracene-induced non-lactating mammary glands solid tumor model of female Swiss albino mouse assessed as reduction in tumor volume at 2 mg/kg, ip; assay type: functional; set-up: scale not given: the % may be the effect or the level left
MCF7 [5] = experiment: Induction of apoptosis in human MCF7 cells assessed as early apoptotic cells level measured by propidium iodide/RNAse staining based flow cytometry analysis (reference value: […]); assay type: functional
MCF7 [6] = experiment: Induction of apoptosis in human MCF7 cells assessed as late apoptotic cells level measured by propidium iodide/RNAse staining based flow cytometry analysis (reference value: 0.22%); assay type: functional
MCF7 [7] = experiment: Induction of cell cycle arrest in human MCF7 cells assessed as decrease in DNA content at G2/M phase measured by propidium iodide/RNAse staining based flow cytometry analysis (reference value: 13.4%); assay type: functional; set-up: scale not given: the % may be the effect or the level left
MCF7 [8] = experiment: cells; conditions: Homo sapiens, MCF7, 72 h
[9] = biological target: Epidermal growth factor receptor (Homo sapiens, UniProt P00533)
Chain of Epidermal growth factor receptor (P00533 whole entry): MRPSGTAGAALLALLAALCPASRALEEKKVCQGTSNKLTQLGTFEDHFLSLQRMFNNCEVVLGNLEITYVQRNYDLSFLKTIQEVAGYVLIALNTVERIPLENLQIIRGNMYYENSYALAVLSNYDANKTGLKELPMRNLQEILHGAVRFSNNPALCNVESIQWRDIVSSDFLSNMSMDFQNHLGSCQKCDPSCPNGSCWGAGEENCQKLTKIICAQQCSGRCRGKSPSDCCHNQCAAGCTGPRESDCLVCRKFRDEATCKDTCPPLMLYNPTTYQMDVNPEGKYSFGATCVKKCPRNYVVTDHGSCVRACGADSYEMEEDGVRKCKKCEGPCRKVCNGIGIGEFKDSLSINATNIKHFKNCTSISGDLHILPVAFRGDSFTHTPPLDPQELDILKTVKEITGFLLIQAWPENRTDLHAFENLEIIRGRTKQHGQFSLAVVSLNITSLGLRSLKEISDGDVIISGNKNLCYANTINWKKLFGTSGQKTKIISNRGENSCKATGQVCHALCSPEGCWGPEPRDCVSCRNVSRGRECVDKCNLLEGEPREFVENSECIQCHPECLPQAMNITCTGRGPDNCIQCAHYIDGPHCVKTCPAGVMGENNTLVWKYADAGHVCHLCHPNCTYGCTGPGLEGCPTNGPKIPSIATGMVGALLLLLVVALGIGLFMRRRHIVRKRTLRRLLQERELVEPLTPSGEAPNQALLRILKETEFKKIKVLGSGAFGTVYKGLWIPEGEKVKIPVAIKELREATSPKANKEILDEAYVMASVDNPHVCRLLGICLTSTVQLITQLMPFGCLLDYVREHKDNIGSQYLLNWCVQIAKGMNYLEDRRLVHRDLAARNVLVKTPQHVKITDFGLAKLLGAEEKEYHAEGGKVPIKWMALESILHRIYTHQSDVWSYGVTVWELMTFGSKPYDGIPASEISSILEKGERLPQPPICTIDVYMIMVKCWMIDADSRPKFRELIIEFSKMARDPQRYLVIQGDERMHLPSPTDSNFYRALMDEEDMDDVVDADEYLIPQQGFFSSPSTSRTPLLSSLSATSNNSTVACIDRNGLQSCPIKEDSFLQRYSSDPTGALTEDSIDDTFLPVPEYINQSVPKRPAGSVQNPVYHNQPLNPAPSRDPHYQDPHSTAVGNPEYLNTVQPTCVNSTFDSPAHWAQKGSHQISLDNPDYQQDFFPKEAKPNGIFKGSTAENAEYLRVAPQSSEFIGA
Description: Inhibition of recombinant human EGFR incubated for 40 to 45 mins and measured after 15 mins by Kinase-Glo Max assay

[10] = biological target: Receptor tyrosine-protein kinase erbB-2 (Homo sapiens, UniProt P04626); experiment: Inhibition of recombinant human HER2 incubated for 40 to 45 mins and measured after 15 mins by Kinase-Glo Max assay
Chain of Receptor tyrosine-protein kinase erbB-2 (P04626 whole entry): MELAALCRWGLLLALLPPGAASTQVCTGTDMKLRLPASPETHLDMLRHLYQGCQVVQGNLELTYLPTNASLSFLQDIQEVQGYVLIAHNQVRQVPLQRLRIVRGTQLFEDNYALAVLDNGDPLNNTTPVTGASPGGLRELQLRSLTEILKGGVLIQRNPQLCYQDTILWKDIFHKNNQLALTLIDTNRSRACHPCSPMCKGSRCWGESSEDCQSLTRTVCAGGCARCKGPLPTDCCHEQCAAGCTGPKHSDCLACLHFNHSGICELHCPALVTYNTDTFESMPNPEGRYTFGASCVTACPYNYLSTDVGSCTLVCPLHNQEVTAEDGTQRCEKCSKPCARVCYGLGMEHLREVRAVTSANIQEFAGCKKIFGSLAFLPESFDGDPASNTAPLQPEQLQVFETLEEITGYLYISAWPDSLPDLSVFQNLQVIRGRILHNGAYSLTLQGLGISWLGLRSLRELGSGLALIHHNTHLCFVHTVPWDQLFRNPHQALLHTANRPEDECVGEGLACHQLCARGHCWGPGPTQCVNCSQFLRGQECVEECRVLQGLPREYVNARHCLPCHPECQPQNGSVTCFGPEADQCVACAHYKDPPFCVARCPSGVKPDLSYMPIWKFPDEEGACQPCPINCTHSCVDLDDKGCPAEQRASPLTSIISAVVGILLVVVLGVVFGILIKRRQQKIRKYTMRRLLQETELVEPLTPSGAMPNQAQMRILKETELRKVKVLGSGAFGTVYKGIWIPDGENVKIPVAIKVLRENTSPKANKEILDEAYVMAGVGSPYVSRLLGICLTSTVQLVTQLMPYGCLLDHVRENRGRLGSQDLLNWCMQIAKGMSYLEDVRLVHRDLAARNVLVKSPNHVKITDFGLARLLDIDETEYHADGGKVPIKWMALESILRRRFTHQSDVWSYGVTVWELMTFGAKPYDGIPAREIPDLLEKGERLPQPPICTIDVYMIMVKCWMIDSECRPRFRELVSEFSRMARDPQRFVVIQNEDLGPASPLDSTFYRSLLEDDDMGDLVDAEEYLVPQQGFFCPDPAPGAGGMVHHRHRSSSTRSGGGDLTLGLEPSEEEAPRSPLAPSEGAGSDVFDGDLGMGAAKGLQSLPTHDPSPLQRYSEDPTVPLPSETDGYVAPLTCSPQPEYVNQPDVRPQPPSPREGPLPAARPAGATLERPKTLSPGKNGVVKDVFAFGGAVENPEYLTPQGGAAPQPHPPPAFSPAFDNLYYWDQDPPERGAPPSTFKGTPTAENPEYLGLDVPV

MCF7 [11] = experiment: Induction of necrosis in human MCF7 cells assessed as necrotic cells level measured by propidium iodide/RNAse staining based flow cytometry analysis (reference value: 0.9%); assay type: functional
[12] = Antitumor activity in 7,12-dimethylbenz [a]anthracene-induced non-lactating mammary glands solid tumor model of female Swiss albino mouse assessed as mean tumor volume at 10 mg/kg, ip; assay type: functional
MCF7 [13] = experiment: Induction of apoptosis in human MCF7 cells assessed as total apoptotic cells level measured by propidium iodide/RNAse staining based flow cytometry analysis (reference value: 0.73%); assay type: functional
Breast cancer cell line = experiment: Antitumor activity in 7,12-dimethylbenz [a]anthracene-induced non-lactating mammary glands solid tumor model of female Swiss albino mouse assessed as absence of ductal carcinoma in mammary gland at 10 mg/kg, ip measured by H and E staining method; assay type: functional, organism-based
WI-38 = experiment: Antiproliferative activity against human WI-38 cells after 72 hrs by MTT assay; assay type: functional, cell-based; conditions: WI-38, 72 h
MCF7 [14] = experiment: Induction of cell cycle arrest in human MCF7 cells assessed as increase in DNA content at S phase measured by propidium iodide/RNAse staining based flow cytometry analysis (reference value: […]%); assay type: functional
[15] = Antitumor activity in 7,12-dimethylbenz [a]anthracene-induced non-lactating mammary glands solid tumor model of female Swiss albino mouse assessed as reduction in tumor volume at 10 mg/kg, ip; assay type: functional; set-up: scale not given: the % may be the effect or the level left
HCT-116 = experiment: cells; conditions: Homo sapiens, HCT-116, 72 h
Description: Antiproliferative activity against human HCT-116 cells after 72 hrs by MTT assay

MCF7 [16] = experiment: Induction of cell cycle arrest in human MCF7 cells assessed as increase in DNA content at G0/G1 phase measured by propidium iodide/RNAse staining based flow cytometry analysis (reference value: 57.82%); assay type: functional
[17] = Toxicity in 7,12-dimethylbenz [a]anthracene-induced non-lactating mammary glands solid tumor model of female Swiss albino mouse assessed as reduction in body weight at 10 mg/kg, ip; assay type: organism-based; set-up: scale not given: the % may be the effect or the level left; conditions: in vivo
Dihydrofolate reductase = biological target: T1, Dihydrofolate reductase (Homo sapiens, UniProt P00374); experiment: Inhibition of recombinant human DHFR expressed in Escherichia coli incubated for 15 mins and measured by ELISA
T1 sequence (P00374 whole entry): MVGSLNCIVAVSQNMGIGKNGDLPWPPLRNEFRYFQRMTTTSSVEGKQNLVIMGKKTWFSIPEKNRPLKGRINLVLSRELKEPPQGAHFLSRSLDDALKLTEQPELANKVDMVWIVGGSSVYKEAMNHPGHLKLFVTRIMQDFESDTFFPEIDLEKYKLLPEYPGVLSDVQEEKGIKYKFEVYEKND

HepG2 = experiment: cells; conditions: Homo sapiens, HepG2, 72 h
[18] = Toxicity in 7,12-dimethylbenz [a]anthracene-induced non-lactating mammary glands solid tumor model of female Swiss albino mouse assessed as mean body weight at 10 mg/kg, ip; assay type: organism-based; conditions: in vivo

**Q.** For `COc1cccc2c1C(=O)c1c(O)c3c(c(O)c1C2=O)C[C@@](O)(C(=O)CO)C[C@@H]3O[C@H]1C[C@H](N)[C@H](O)[C@H](C)O1` [DOXORUBICIN], which Activity [1] is on record?
**A.** The Activity was 0.62 mm3.

**Q.** What about the Activity [2] of the same compound?
**A.** The Activity was 23.7%.

**Q.** And the Activity (Breast carcinoma cell)?
**A.** The Activity was 1.5.

**Q.** And the Activity [3]?
**A.** The Activity was 29 g.

**Q.** What about the IC50 (HeLa) of the same compound?
**A.** Its IC50 is 8.87 µM.

**Q.** What about the IC50 (PC-3) of the same compound?
**A.** Its IC50 is 8.54 µM.

**Q.** And the Activity [4]?
**A.** Its Activity is 80.4%.

**Q.** For `COc1ccc(-c2c(CN3CCOCC3)nc3scc(C(=O)NN)n23)cc1`, which Activity (MCF7 [5]) is on record?
**A.** Its Activity is 13.27%.

**Q.** And the Activity (MCF7 [6])?
**A.** Its Activity is 22.19%.

**Q.** And the Activity (MCF7 [7])?
**A.** The Activity was 10.26%.

**Q.** What about the IC50 (MCF7 [8]) of the same compound?
**A.** Its IC50 is 2.37 µM.

**Q.** And the IC50 [9]?
**A.** The IC50 was 0.122 µM.

**Q.** And the IC50 [10]?
**A.** Its IC50 is 0.078 µM.

**Q.** What about the Activity (MCF7 [11]) of the same compound?
**A.** Its Activity is 3.25%.

**Q.** What about the Activity (Breast carcinoma cell) of the same compound?
**A.** The Activity was 1.17.

**Q.** What about the Activity [12] of the same compound?
**A.** The Activity was 1.098 mm3.

**Q.** And the Activity (MCF7 [13])?
**A.** The Activity was 35.46%.

**Q.** And the Activity (Breast cancer cell line)?
**A.** Its Activity is “Active”.

**Q.** What about the IC50 (WI-38) of the same compound?
**A.** The IC50 was 36.8 µM.

**Q.** What about the IC50 (HeLa) of the same compound?
**A.** The IC50 was 9.43 µM.

**Q.** And the Activity (MCF7 [14])?
**A.** Its Activity is 25.49%.

**Q.** And the Activity [15]?
**A.** The Activity was 65.3%.

**Q.** What about the IC50 (HCT-116) of the same compound?
**A.** Its IC50 is 16.2 µM.

**Q.** What about the Activity (MCF7 [16]) of the same compound?
**A.** The Activity was 64.25%.

**Q.** What about the Activity [17] of the same compound?
**A.** Its Activity is 7.4%.

**Q.** And the IC50 (Dihydrofolate reductase)?
**A.** The IC50 was 0.585 µM.

**Q.** And the IC50 (HepG2)?
**A.** The IC50 was 12.2 µM.

**Q.** What about the Activity [18] of the same compound?
**A.** Its Activity is 35.2 g.

**Q.** And the IC50 (PC-3)?
**A.** The IC50 was 18.4 µM.

**Q.** With `CC(=O)NNC(=O)c1csc2ncc(-c3ccc(Br)cc3)n12` as the compound, how does the Activity (MCF7 [5]) read?
**A.** The Activity was 9.63%.

**Q.** What about the Activity (MCF7 [6]) of the same compound?
**A.** The Activity was 28.04%.

**Q.** And the Activity (MCF7 [7])?
**A.** Its Activity is 5.24%.

**Q.** And the IC50 (MCF7 [8])?
**A.** The IC50 was 1.83 µM.

**Q.** What about the IC50 [9] of the same compound?
**A.** The IC50 was 0.153 µM.

**Q.** What about the IC50 [10] of the same compound?
**A.** Its IC50 is 0.108 µM.

**Q.** What about the Activity (MCF7 [11]) of the same compound?
**A.** Its Activity is 6.72%.

**Q.** And the Activity (Breast carcinoma cell)?
**A.** The Activity was 1.33.

**Q.** What about the Activity [12] of the same compound?
**A.** The Activity was 0.742 mm3.

**Q.** And the Activity (MCF7 [13])?
**A.** Its Activity is 37.67%.

**Q.** What about the Activity (Breast cancer cell line) of the same compound?
**A.** Its Activity is “Active”.

**Q.** And the IC50 (WI-38)?
**A.** The IC50 was 54.2 µM.

**Q.** What about the IC50 (HeLa) of the same compound?
**A.** Its IC50 is 4.78 µM.

**Q.** And the Activity (MCF7 [14])?
**A.** The Activity was 32.15%.

**Q.** What about the Activity [15] of the same compound?
**A.** The Activity was 76.5%.

**Q.** And the IC50 (HCT-116)?
**A.** The IC50 was 6.08 µM.

**Q.** What about the Activity (MCF7 [16]) of the same compound?
**A.** Its Activity is 62.61%.

**Q.** What about the Activity [17] of the same compound?
**A.** The Activity was 17.4%.

**Q.** What about the IC50 (Dihydrofolate reductase) of the same compound?
**A.** The IC50 was 0.291 µM.

**Q.** And the IC50 (HepG2)?
**A.** Its IC50 is 3.48 µM.

**Q.** What about the Activity [18] of the same compound?
**A.** The Activity was 31.4 g.

**Q.** And the IC50 (PC-3)?
**A.** Its IC50 is 12.7 µM.
